Results: US11478471B2, “Methods and compositions for treating diabetes, metabolic syndrome and other conditions” (priority 2005, dated 2022)
In brackets after ≈: the same amount, converted by molar mass. Entries after “also recorded” stand apart in the source; their conditions may differ. Like-named read-outs stand apart in the source and are kept apart here.

Tests used:
[1] = test system: plasma corticosterone; assay: Plasma corticosterone in rats after oral dosing (ELISA); assay type: in vivo, Sprague Dawley rats; conditions: for effect on plasma corticosterone (FIG. 1): 200 mg/kg oral, vs vehicle; for Corticosteroid Levels (mean ± SEM): 4 h after gavage
Protocol: To generate the results shown in FIG. 1, five groups (eight per group) of rats were used. The rats were maintained on a 14/10 hour light/dark cycle and allowed free access to food and water. Each rat was dosed (200 mg drug/kg body weight) via a gastric tube. […] All of the rats were dosed between 2.00 and 3.00 pm and were sacrificed four hours later (between 6.00 and 7.00 pm). Plasma was prepared and the concentration of corticosterone determined by an enzyme linked immuno assay (ELISA). In rats, the predominant active glucocorticoid is corticosterone; in humans, the predominant active glucucorticoid is the closely related molecule cortisol.
The rats were maintained and dosed as described above. Plasma was prepared and the concentration of corticosterone in the plasma determined by ELISA.
(§1) The rats were maintained as described above; the drugs were suspended in olive oil, and each rat was dosed once via gastric tube to achieve a dose of 200 mg/kg. All of the rats were dosed at a specific time so that all terminations occurred between 6 and 7 pm. […] Following sacrifice, plasma was prepared, and the concentration of corticosterone in the plasma was determined by ELISA. In the same plasma samples, total cholesterol levels were also determined.
In the Table, corticosterone levels (mean±SEM; ng/mL) were determined four hours after oral gavage of the indicated drug (N=10/group). There was a single control group (dosed with vehicle).
Corticosterone levels (mean±SEM; ng/mL) were determined at the indicated times after oral gavage of the indicated drug at 200 mg/kg. […] The means of the vehicle treated groups are used as the time zero control point.

[2] = test system: cholesterol levels; assay: Cholesterol levels in rats after oral dosing; assay type: in vivo, Sprague Dawley rats; conditions: single oral 200 mg/kg
Protocol: as §1

[3] = test system: testosterone levels; assay: Testosterone levels in rats after oral dosing; assay type: in vivo, Sprague Dawley rats; conditions: for Testosterone levels (mean ± SEM): 4 h after gavage
From the text: There was a single control group (dosed with vehicle).
The means of the vehicle treated groups are used as the time zero control point.

[4] = test system: Candida albicans; assay: Antifungal MIC; assay type: cell-based; conditions: read-out: MIC
[5] = test system: Candida glabrata; assay: Antifungal MIC; assay type: cell-based; conditions: Nakaseomyces glabratus, read-out: MIC
[6] = test system: Candida guilliermondii; assay: Antifungal MIC; assay type: cell-based; conditions: Meyerozyma guilliermondii, DSM11947; DSM strain 11947, 48 h
[7] = test system: Candida kefyr; assay: Antifungal MIC; assay type: cell-based; conditions: Kluyveromyces marxianus, DSM11954; DSM strain 11954, 48 h
[8] = test system: Candida parapsilosis; assay: Antifungal MIC; assay type: cell-based; conditions: Lodderomyces parapsilosis, read-out: MIC
[9] = test system: Candida tropicalis; assay: Antifungal MIC; assay type: cell-based
[10] = test system: Cryptococcus neoformans; assay: Antifungal MIC; assay type: cell-based
[11] = test system: Issatchenkia orientalis; assay: Antifungal MIC; assay type: cell-based; conditions: Pichia kudriavzevii, read-out: MIC
[12] = test system: Saccharomyces cerevisiae; assay: Antifungal MIC; assay type: cell-based; conditions: DSM01333, DSM strain 01333, 48 h
[13] = biological target: P450 2C6 (Rattus norvegicus, UniProt P05178); conditions: Rotstein et al. 1992; read-out: IC50, progesterone 21 hydroxylase (2C6); cited from earlier work
[14] = test system: P450 3A; conditions: read-out: IC50, progesterone 6β hydroxylase (3A); Rotstein et al. 1992; cited from earlier work
[15] = test system: P450 2B1, 2B2, 1A1, 2C11, 3A; conditions: read-out: IC50, progesterone 16α hydroxylase (2B1, 2B2, 1A1, 2C11, 3A); Rotstein et al. 1992; cited from earlier work
[16] = test system: P450 4A; conditions: read-out: IC50, lauric acid hydroxylase (4A); Rotstein et al. 1992; cited from earlier work
[17] = humans, cited from earlier work
[18] = test system: CYP7A (cholesterol 7α hydroxylase); assay: Inhibition of CYP7A, cholesterol 7α-hydroxylase activity (Rotstein et al. 1992); conditions: assuming intrahepatic concentration approximately 20% of total plasma concentration; listed as 2R,4S enantiomer
[19] = biological target: T1, succinate dehydrogenase (Rattus norvegicus, UniProt Q920L2); conditions: read-out: in vitro IC50, succinate dehydrogenase; cited from earlier work
T1 construct: host or cells: isolated rat liver mitochondria (from the cited title)

[20] = following fifth 200 mg dose of racemic ketoconazole (every twelve hours)
[21] = following first 200 mg dose of racemic ketoconazole

Sequence of P450 2C6 (P05178 whole entry): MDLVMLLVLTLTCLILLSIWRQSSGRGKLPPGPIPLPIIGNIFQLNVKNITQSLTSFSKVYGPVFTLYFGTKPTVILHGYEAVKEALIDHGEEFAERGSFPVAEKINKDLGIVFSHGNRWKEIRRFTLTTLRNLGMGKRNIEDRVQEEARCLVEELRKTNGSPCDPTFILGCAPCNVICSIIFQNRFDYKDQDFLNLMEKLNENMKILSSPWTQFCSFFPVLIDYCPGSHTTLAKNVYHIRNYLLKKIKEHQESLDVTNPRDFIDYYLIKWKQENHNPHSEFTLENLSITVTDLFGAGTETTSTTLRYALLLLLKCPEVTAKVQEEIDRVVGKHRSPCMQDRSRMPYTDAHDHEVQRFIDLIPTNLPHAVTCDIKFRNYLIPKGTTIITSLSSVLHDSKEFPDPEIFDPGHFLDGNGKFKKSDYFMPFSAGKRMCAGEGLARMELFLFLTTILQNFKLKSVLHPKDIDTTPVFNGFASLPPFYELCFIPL
T1 sequence (Q920L2 35-656): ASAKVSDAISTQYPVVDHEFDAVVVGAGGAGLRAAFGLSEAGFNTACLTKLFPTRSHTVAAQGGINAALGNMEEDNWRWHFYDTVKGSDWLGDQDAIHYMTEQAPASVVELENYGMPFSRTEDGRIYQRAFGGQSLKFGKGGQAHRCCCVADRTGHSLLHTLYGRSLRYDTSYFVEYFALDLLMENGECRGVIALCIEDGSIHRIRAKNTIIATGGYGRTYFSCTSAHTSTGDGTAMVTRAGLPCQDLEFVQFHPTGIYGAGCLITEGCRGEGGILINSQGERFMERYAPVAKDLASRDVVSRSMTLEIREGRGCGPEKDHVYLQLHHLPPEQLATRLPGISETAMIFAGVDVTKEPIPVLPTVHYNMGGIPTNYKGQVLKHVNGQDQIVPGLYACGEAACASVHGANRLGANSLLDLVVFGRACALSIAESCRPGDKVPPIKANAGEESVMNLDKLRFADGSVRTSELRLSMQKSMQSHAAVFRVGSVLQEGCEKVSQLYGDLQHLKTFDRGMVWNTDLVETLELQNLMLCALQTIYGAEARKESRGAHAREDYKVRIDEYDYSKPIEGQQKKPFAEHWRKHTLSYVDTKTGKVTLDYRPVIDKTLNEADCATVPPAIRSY
T1 sequence (P21913 31-282 partner): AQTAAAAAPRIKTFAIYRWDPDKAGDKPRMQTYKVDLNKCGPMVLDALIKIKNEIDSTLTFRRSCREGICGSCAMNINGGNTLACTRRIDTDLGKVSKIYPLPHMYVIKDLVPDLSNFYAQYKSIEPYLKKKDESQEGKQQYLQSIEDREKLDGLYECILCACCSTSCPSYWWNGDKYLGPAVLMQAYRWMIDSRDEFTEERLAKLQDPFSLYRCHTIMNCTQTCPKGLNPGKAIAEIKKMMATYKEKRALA
T1 sequence (Q641Z9 30-169 partner limits assumed): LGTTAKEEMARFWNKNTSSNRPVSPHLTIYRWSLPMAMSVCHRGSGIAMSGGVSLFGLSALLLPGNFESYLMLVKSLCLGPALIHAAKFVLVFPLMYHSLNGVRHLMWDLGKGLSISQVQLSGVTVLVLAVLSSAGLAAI
T1 sequence (Q6PCT8 57-159 partner): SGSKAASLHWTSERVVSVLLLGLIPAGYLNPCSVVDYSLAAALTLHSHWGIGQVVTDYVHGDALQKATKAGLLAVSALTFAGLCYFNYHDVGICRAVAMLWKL

Structure (SMILES): CC(=O)N1CCN(c2ccc(OC[C@H]3CO[C@](Cn4ccnc4)(c4ccc(Cl)cc4Cl)O3)cc2)CC1 [2R,4S]
- effect on plasma corticosterone (FIG. 1) ([1]; 4 h): reduce corticosterone
- Corticosteroid Levels (mean ± SEM) ([1]; single oral 50 mg/kg): 226 ± 30.1 ng/mL
- Corticosteroid Levels (mean ± SEM) ([1]; single oral 100 mg/kg): 196 ± 17.2 ng/mL
- Corticosteroid Levels (mean ± SEM), time course ([1]; single oral 200 mg/kg, 4 h): 191 ± 14 ng/mL
- Corticosteroid Levels (mean ± SEM) ([1]; single oral 200 mg/kg): 217 ± 25.8 ng/mL
- Corticosteroid Levels (mean ± SEM), time course ([1]; single oral 200 mg/kg, 8 h): 206 ± 13 ng/mL
- Corticosteroid Levels (mean ± SEM), time course ([1]; single oral 200 mg/kg, 12 h): 175 ± 9 ng/mL
- Corticosteroid Levels (mean ± SEM), time course ([1]; single oral 200 mg/kg, 16 h): 171 ± 9 ng/mL
- Corticosteroid Levels (mean ± SEM), time course ([1]; single oral 200 mg/kg, 20 h): 169 ± 7 ng/mL
- Corticosteroid Levels (mean ± SEM), time course ([1]; single oral 200 mg/kg, 24 h): 182 ± 10 ng/mL
- Corticosteroid Levels (mean ± SEM) ([1]; single oral 400 mg/kg): 192 ± 11.6 ng/mL
- Corticosteroid Levels (mean ± SEM) ([1]; single oral 600 mg/kg): 167 ± 6.8 ng/mL
- Cholesterol Levels (mean ± SEM) ([2]; 4 h): 85.1 ± 7 mg/dL
- Cholesterol Levels (mean ± SEM) ([2]; 8 h): 85.1 ± 5.4 mg/dL
- Cholesterol Levels (mean ± SEM) ([2]; 12 h): 77.3 ± 1.9 mg/dL
- Cholesterol Levels (mean ± SEM) ([2]; 16 h): 77.3 ± 4.6 mg/dL
- Cholesterol Levels (mean ± SEM) ([2]; 20 h): 69.6 ± 2.7 mg/dL
- Cholesterol Levels (mean ± SEM) ([2]; 24 h): 69.6 ± 1.5 mg/dL
- Testosterone levels (mean ± SEM) ([3]; single oral 50 mg/kg): 2.5 ± 0.5 nmol/L
- Testosterone levels (mean ± SEM) ([3]; single oral 100 mg/kg): 1.3 ± 0.2 nmol/L
- Testosterone levels (mean ± SEM), time course ([3]; single oral 200 mg/kg, 4 h): 3.4 ± 0.5 nmol/L
- Testosterone levels (mean ± SEM) ([3]; single oral 200 mg/kg): 1.4 ± 0.4 nmol/L
- Testosterone levels (mean ± SEM), time course ([3]; single oral 200 mg/kg, 8 h): 8.6 ± 2.0 nmol/L
- Testosterone levels (mean ± SEM), time course ([3]; single oral 200 mg/kg, 12 h): 5.6 ± 1.1 nmol/L
- Testosterone levels (mean ± SEM), time course ([3]; single oral 200 mg/kg, 16 h): 5.5 ± 0.9 nmol/L
- Testosterone levels (mean ± SEM), time course ([3]; single oral 200 mg/kg, 20 h): 5.2 ± 1.1 nmol/L
- Testosterone levels (mean ± SEM), time course ([3]; single oral 200 mg/kg, 24 h): 6.0 ± 1.0 nmol/L
- Testosterone levels (mean ± SEM) ([3]; single oral 400 mg/kg): 0.7 ± 0.2 nmol/L
- Testosterone levels (mean ± SEM) ([3]; single oral 600 mg/kg): 1.6 ± 0.3 nmol/L
- MIC ([4]; DSM11225, DSM strain 11225, 48 h): < 0.015 µg/mL
- MIC ([4]; DSM11943, DSM strain 11943, 48 h): < 0.015 µg/mL
- MIC ([4]; DSM11944, DSM strain 11944, 48 h): < 0.015 µg/mL
- MIC ([4]; DSM11945, DSM strain 11945, 48 h): 0.03 µg/mL (≈ 0.0565 µM)
- MIC ([4]; DSM11948, DSM strain 11948, 48 h): < 0.015 µg/mL
- MIC ([4]; DSM11949, DSM strain 11949, 48 h): 0.25 µg/mL (≈ 0.47 µM)
- MIC ([4]; strain 98-St-00799, 48 h): < 0.015 µg/mL
- MIC ([5]; DSM11226, DSM strain 11226, 48 h): 0.5 µg/mL (≈ 0.941 µM)
- MIC ([5]; DSM11950, DSM strain 11950, 48 h): 0.25 µg/mL (≈ 0.47 µM)
- MIC [6]: 0.25 µg/mL (≈ 0.47 µM)
- MIC [7]: 0.03 µg/mL (≈ 0.0565 µM)
- MIC ([8]; DSM05784, DSM strain 05784, 48 h): 0.06 µg/mL (≈ 0.113 µM)
- MIC ([8]; DSM11224, DSM strain 11224, 48 h): 0.06 µg/mL (≈ 0.113 µM)
- MIC ([9]; DSM11951, 48 h): 0.125 µg/mL (≈ 0.235 µM)
- MIC ([9]; DSM11952, DSM strain 11952, 48 h, read-out: MIC): 4 µg/mL (≈ 7.53 µM)
- MIC ([9]; DSM11953, 48 h): 0.125 µg/mL (≈ 0.235 µM)
- MIC ([10]; DSM11959, DSM strain 11959, 48 h): 0.03 µg/mL (≈ 0.0565 µM)
- MIC ([10]; DSM11960, DSM strain 11960, 48 h): 0.125 µg/mL (≈ 0.235 µM)
- MIC ([11]; DSM11956, DSM strain 11956, 48 h): 0.5 µg/mL (≈ 0.941 µM)
- MIC ([11]; DSM11958, DSM strain 11958, 48 h): 2 µg/mL (≈ 3.76 µM)
- MIC [12]: 0.25 µg/mL (≈ 0.47 µM)
- IC50 [13]: 11.2 µM
- IC50 [14]: 0.79 µM
- IC50 [15]: 69 µM
- IC50 [16]: < 100 µM
- AUC 0-12 [17, 20]: 1543 ± 231 µg·min/mL
- Cmax [17, 20]: 4770 ± 550 ng/mL
- T ½ [17, 20]: 2.63 ± 0.317 h
- AUC 0-12 [17, 21]: 820 ± 142 µg·min/mL
- Cmax [17, 21]: 3400 ± 440 ng/mL
- T ½ [17, 21]: 1.62 ± 0.13 h
- total plasma concentration required to inhibit intrahepatic CYP7A [18]: approximately 1 microM; also recorded: approximately 0.5 microg/mL

Structure (SMILES): CC(=O)N1CCN(c2ccc(OCC3COC(Cn4ccnc4)(c4ccc(Cl)cc4Cl)O3)cc2)CC1 (stereo not drawn) [2S45]
- effect on plasma corticosterone (FIG. 1) ([1]; 4 h): little effect

Structure (SMILES): Clc1ccc(C2(Cn3ccnc3)OCC(COc3ccc(N4CCNCC4)cc3)O2)c(Cl)c1 (stereo not drawn) [DAK, deacetylated ketoconazole]
- IC50 [19]: 350 µM
